Results reported in patent publication US20060111305A1, “Metabolites of certain [1,4]diazepino[6,7,1-ij]quinoline derivatives and methods of preparation and use thereof” (Wyeth, priority 2004, published 2006).
Several values for one entry are separate records, joined by “and”; a condition that tells them apart may be missing. Equal values may be shown once. Read-outs that look alike come from different tables or passages of the source.

Tests used:
[1] = Rat fecal excretion and metabolite profiles after single oral 5 mg/kg [14C]DCDQ; type: in vivo, Sprague-Dawley rats; settings: male rats, 8-24 hour fecal extracts
Experimental: (§1) At sacrifice, blood samples were collected by cardiac puncture into tubes containing EDTA as the anticoagulant and placing them on ice. Aliquots of 50 μL were removed for combustion and determination of radioactivity content. Plasma was immediately obtained from the remaining blood by centrifugation at 4° C. Brains were excised after perfusion with 50 mL of chilled sterile saline. Urine samples were collected on dry ice at intervals of 0-8 and 8-24 hour post-dosing. Feces were collected at intervals of 0-8 and 8-24 hr post-dosing at room temperature and were homogenized as described previously. The biological specimens and aliquots of the dosing solution at pre- and post-dose were stored at approximately −70° C. until analyzed.
(§2) Brain and fecal samples were weighed and homogenized in water at volume-to-weight ratios of about 1:1 and 5:1, respectively. Blood aliquots (50 μL), brain homogenates (0.1 gram) and fecal homogenates (0.2 gram) were placed on Combusto-cones with Combusto-pads and combusted. A model 307 Tri-Carb Sample Oxidizer, equipped with an Oximate-80 Robotic Automatic Sampler (Perkin Elmer), was used for combustion. The liberated ^14CO2 was trapped with Carbo-Sorb E carbon dioxide absorber, mixed with PermaFluor® E+ liquid scintillation cocktail, and counted in a Tri-Carb Model 3100 TR/LL liquid scintillation counter (Perkin Elmer). The oxidation efficiency of the oxidizer was 98.2%.
Fecal homogenates were analyzed for metabolite profiles. Aliquots of 1 gram of fecal homogenates were mixed with 2 mL methanol, placed on ice for about 10 minutes and centrifuged. The supernatant was transferred to a clean tube. The residue was extracted three times with 2 mL of a water:methanol (3:7) mixture. The supernatants of each sample were combined, evaporated to about 1 mL, and centrifuged. Extraction efficiency was determined by analyzing aliquots of 10 μL of the supernatant for radioactivity. An aliquot (50-200 μL) of the supernatant was analyzed by HPLC with radioactivity flow detection for profiling. Samples were also analyzed by LC/MS to characterize the radioactive peaks.
A Waters model 2690 HPLC system (Waters Corp., Milford, Mass.) with a built-in autosampler was used for analysis. Separations were accomplished on a Phenomenex Luna C18(2) column (150×2.0 mm, 5 μm) (Phenomenex, Torrance, Calif.). The sample chamber of the autosampler was maintained at 4° C., while the column was at ambient temperature of about 20° C. A variable wavelength UV detector set to monitor 250 nm and a Flo-One β Model A525 radioactivity detector described above were used for data acquisition. The HPLC mobile phase consisted of 10 mM ammonium acetate, pH 4.5 (A) and methanol (B), and was delivered at 0.2 mL/min. […]

[2] = Rat brain radioactivity content and metabolite profiles after single oral 5 mg/kg [14C]DCDQ; type: in vivo, Sprague-Dawley rats
Experimental: as §1, §2
Brain homogenates were analyzed for metabolite profiles. Aliquots of 1 gram of brain homogenates were mixed with an equal volume of methanol, placed on ice for about 10 minutes and centrifuged. The supernatant was transferred to a clean tube. The residue was extracted three times with 1 mL methanol. The supernatants of each sample were combined, evaporated to about 0.5 mL, and centrifuged. Extraction efficiency was determined by analyzing aliquots of 10 μL of the supernatant for radioactivity. An aliquot (100-200 μL) of the supernatant was analyzed by HPLC with radioactivity flow detection for profiling. Samples were also analyzed by LC/MS to characterize the radioactive peaks.
A Waters model 2690 HPLC system (Waters Corp., Milford, Mass.) with a built-in autosampler was used for analysis. Separations were accomplished on a Phenomenex Luna C18(2) column (150×2.0 mm, 5 μm) (Phenomenex, Torrance, Calif.). The sample chamber of the autosampler was maintained at 4° C., while the column was at ambient temperature of about 20° C. A variable wavelength UV detector set to monitor 250 nm and a Flo-One β Model A525 radioactivity detector described above were used for data acquisition. The HPLC mobile phase consisted of 10 mM ammonium acetate, pH 4.5 (A) and methanol (B), and was delivered at 0.2 mL/min. Chromatographic condition A was used for dose analysis, while condition B was used for analysis of urine and plasma, brain and fecal extracts.

[3] = M6 to DCDQ ratios in human urine, LC/MS (Table 35); type: in vivo, healthy human subjects
Experimental: Drug administration and specimen collection were performed in a randomized, double-blinded, placebo-controlled, ascending single dose study of the safety, tolerability, pharmacokinetics, and pharmacodynamics of DCDQ administered orally to healthy subjects and subjects with schizophrenia and schizoaffective disorder. The specimens were stored at approximately −70° C. until analysis for metabolite profiles and for ratios of carbamoyl glucuronide (M6) to DCDQ.
The 0-4, 4-12 and 12-24 hr urine samples from the same subjects in the single dose groups were analyzed for ratios of M6 to DCDQ. The internal standard was not used in the analysis of urine samples. The samples were diluted for 20-fold with a control urine sample and directly analyzed by LC/MS. To estimate M6-to-DCDQ ratios in human urine, control urine samples were spiked with 200 ng/mL of DCDQ and 1000, 5000, or 10000 ng/mL of DCDQ carbamoyl glucuronide, and were analyzed by LC/MS.
LC/MS System 3 was used for semi-quantitative analysis of metabolite M6 (DCDQ carbamoyl glucuronide) in plasma and urine samples. The HPLC equipment for this LC/MS System consisted of a Thermo Surveyor HPLC (Thermo Electron Corp., San Jose, Calif.), including a Surveyor MS pump and autosampler. Separations were accomplished on a 5 micron Phenomenex Luna C18(2) column, 150×2 mm (Phenomenex, Torrance, Calif.). The autosampler and column temperatures were set at 5° C. and 40° C., respectively. The HPLC mobile phase consisted of 10 mM ammonium acetate (A) and methanol (B), and was delivered at 0.2 mL/min. The linear mobile phase gradient (HPLC Gradient 2) is shown below. During LC/MS sample analysis, up to 3 min of the initial flow was diverted away from the mass spectrometer prior to evaluation of metabolites.
The mass spectrometer used for semi-quantitative anslysis with LC/MS System 3 was a Finnigan TSQ Quantum triple quadrupole mass spectrometer (Thermo Electron Corp.). The mass spectrometer was equipped with an electrospray interface and operated in the positive ionization mode. Settings for this mass spectrometer are listed below.
LC/MS/MS analysis in the selected reaction monitoring (SRM) mode (LC/SRM) was conducted for DCDQ and M6 using the following settings.

c1cc2c3c(c1)[C@H]1CCC[C@H]1CN3CCNC2 [DCDQ, (9aR,12aS)-4,5,6,7,9,9a,10,11,12,12a-decahydro-cyclopenta[c][1,4]diazepine[6,7,1-ij]quinoline, reference compound]
relative abundance in fecal extracts [1]: only trace amounts | Kp at 2 h ([2]; Sprague-Dawley, rat, brain and plasma, oral, 5 mg/kg, male rats, 2 hr, read-out: Brain/Plasma Ratio, DCDQ): 56.4 ± 11.5 | Kp at 4 h ([2]; Sprague-Dawley, rat, brain and plasma, oral, 5 mg/kg, male rats, 4 hr, read-out: Brain/Plasma Ratio, DCDQ): 50.5 ± 8.88 | concentration at 2 h ([2]; Sprague-Dawley, rat, brain, oral, 5 mg/kg, female rats, 2 hr, mean ± S.D., N = 3, read-out: Brain concentration, DCDQ (estimated)): 6080 ± 2170 ng/g | concentration at 8 h ([2]; Sprague-Dawley, rat, brain, oral, 5 mg/kg, female rats, 8 hr, mean ± S.D., N = 3, read-out: Brain concentration, DCDQ (estimated)): 2680 ± 660 ng/g | concentration at 2 h ([2]; Sprague-Dawley, rat, brain, oral, 5 mg/kg, male rats, 2 hr, mean ± S.D., N = 3, read-out: Brain concentration, DCDQ (estimated)): 4630 ± 1180 ng/g | concentration at 4 h ([2]; Sprague-Dawley, rat, brain, oral, 5 mg/kg, male rats, 4 hr, mean ± S.D., N = 3, read-out: Brain concentration, DCDQ (estimated)): 4470 ± 420 ng/g | concentration at 8 h ([2]; Sprague-Dawley, rat, brain, oral, 5 mg/kg, male rats, 8 hr, mean ± S.D., N = 3, read-out: Brain concentration, DCDQ (estimated)): 2930 ± 930 ng/g | Kp at 2 h ([2]; Sprague-Dawley, rat, brain/plasma, oral, 5 mg/kg, female rats, 2 hr, read-out: Brain/Plasma Ratio, DCDQ): 49.9 ± 14.3 | Kp at 8 h ([2]; Sprague-Dawley, rat, brain/plasma, oral, 5 mg/kg, female rats, 8 hr, read-out: Brain/Plasma Ratio, DCDQ): 56.1 ± 17.8 | Kp at 8 h ([2]; Sprague-Dawley, rat, brain/plasma, oral, 5 mg/kg, male rats, 8 hr, read-out: Brain/Plasma Ratio, DCDQ): 50.5 ± 11.4 | Kp ([2]; both sexes, Sprague-Dawley, rat, brain, oral, 5 mg/kg, independent of time or sex, 2 to 8 hour post-dose, read-out: average brain-to-plasma DCDQ ratio): 49.9 to 56.1 | % DCDQ of Brain Radioactivity ([2]; female rats, 2 hr): 95.2 ± 1.0% | % DCDQ of Brain Radioactivity ([2]; female rats, 8 hr): 94.1 ± 0.7% | % DCDQ of Brain Radioactivity ([2]; male rats, 2 hr): 90.4 ± 0.9% | % DCDQ of Brain Radioactivity ([2]; male rats, 4 hr): 90.4 ± 0.5% | % DCDQ of Brain Radioactivity ([2]; male rats, 8 hr): 90.0 ± 1.2% | DCDQ concentration in urine ([3]; 50 mg (fasted), 0-4 hr, Mean ± S.D.): 47.5 ± 58.5 ng/mL | DCDQ concentration in urine ([3]; 50 mg (fasted), 0-4 hr, individual subjects): 115 ng/mL and 13.7 ng/mL (2×) | DCDQ concentration in urine ([3]; 50 mg (fasted), 4-12 hr, Mean ± S.D.): 58.4 ± 58.9 ng/mL | DCDQ concentration in urine ([3]; 50 mg (fasted), 4-12 hr, individual subjects): 31 ng/mL and 18.2 ng/mL and 126 ng/mL | DCDQ concentration in urine ([3]; 50 mg (fasted), 12-24 hr, Mean): 32.7 ± 37.4 ng/mL | DCDQ concentration in urine ([3]; 50 mg (fasted), 12-24 hr, individual subjects): 17.7 ng/mL and 5.21 ng/mL and 75.3 ng/mL | DCDQ concentration in urine ([3]; 200 mg (fasted), 0-4 hr, Mean ± S.D.): 199 ± 124 ng/mL | DCDQ concentration in urine ([3]; 200 mg (fasted), 0-4 hr, individual subjects): 251 ng/mL and 288 ng/mL and 57 ng/mL | DCDQ concentration in urine ([3]; 200 mg (fasted), 4-12 hr, Mean ± S.D.): 118 ± 51.9 ng/mL | DCDQ concentration in urine ([3]; 200 mg (fasted), 4-12 hr, individual subjects): 79.5 ng/mL and 177 ng/mL and 97.3 ng/mL | DCDQ concentration in urine ([3]; 200 mg (fasted), 12-24 hr, Mean ± S.D.): 114 ± 81.5 ng/mL | DCDQ concentration in urine ([3]; 200 mg (fasted), 12-24 hr, individual subjects): 23.1 ng/mL and 181 ng/mL and 137 ng/mL | DCDQ concentration in urine ([3]; 300 mg (fasted), 0-4 hr, Mean ± S.D.): 81.4 ± 82.9 ng/mL | DCDQ concentration in urine ([3]; 300 mg (fasted), 0-4 hr, individual subjects): 9.43 ng/mL and 62.8 ng/mL and 172 ng/mL | DCDQ concentration in urine ([3]; 300 mg (fasted), 4-12 hr, Mean ± S.D.): 62.5 ± 36.8 ng/mL | DCDQ concentration in urine ([3]; 300 mg (fasted), 4-12 hr, individual subjects): 21.7 ng/mL and 93.4 ng/mL and 72.3 ng/mL | DCDQ concentration in urine ([3]; 300 mg (fasted), 12-24 hr, Mean ± S.D.): 128 ± 148 ng/mL | DCDQ concentration in urine ([3]; 300 mg (fasted), 12-24 hr, individual subjects): 22.9 ng/mL and 298 ng/mL and 64.1 ng/mL | DCDQ concentration in urine ([3]; 300 mg (fed), 0-4 hr, Mean ± S.D.): 19.8 ± 31.3 ng/mL | DCDQ concentration in urine ([3]; 300 mg (fed), 0-4 hr, individual subjects): 55.9 ng/mL and 1.56 ng/mL and 1.82 ng/mL | DCDQ concentration in urine ([3]; 300 mg (fed), 4-12 hr, Mean ± S.D.): 155 ± 115 ng/mL | DCDQ concentration in urine ([3]; 300 mg (fed), 4-12 hr, individual subjects): 259 ng/mL and 174 ng/mL and 30.6 ng/mL | DCDQ concentration in urine ([3]; 300 mg (fed), 12-24 hr, Mean ± S.D.): 258 ± 125 ng/mL | DCDQ concentration in urine ([3]; 300 mg (fed), 12-24 hr, individual subjects): 351 ng/mL and 116 ng/mL and 308 ng/mL | DCDQ concentration in urine ([3]; 500 mg (fasted), 0-4 hr, Mean ± S.D.): 914 ± 619 ng/mL | DCDQ concentration in urine ([3]; 500 mg (fasted), 0-4 hr, individual subjects): 1569 ng/mL and 835 ng/mL and 339 ng/mL | DCDQ concentration in urine ([3]; 500 mg (fasted), 4-12 hr, Mean ± S.D.): 1369 ± 658 ng/mL | DCDQ concentration in urine ([3]; 500 mg (fasted), 4-12 hr, individual subjects): 1683 ng/mL and 612 ng/mL and 1811 ng/mL | DCDQ concentration in urine ([3]; 500 mg (fasted), 12-24 hr, Mean ± S.D.): 279 ± 123 ng/mL | DCDQ concentration in urine ([3]; 500 mg (fasted), 12-24 hr, individual subjects): 160 ng/mL and 405 ng/mL and 273 ng/mL
